Source: article PMC6501426 (Clinical Epigenetics, 2019)

Assays:
[1] = tested on: KG-1, U-937, RAJI, PC-3, MDA-MB-231 cancer cells; assay: Viability in panel of cancer cells; assay type: cell-based; details: Homo sapiens, 48 h of treatment, range over KG-1, U-937, RAJI, read-out: IC50 values, proliferation/viability in cancer cell panel
Protocol: Proliferation and viability of U-937, KG-1, RAJI, PC-3, MDA-MB-231, RPMI1788, PBMCs, and PHA_PBMCs were assessed by trypan blue exclusion assays at the indicated time points. Nuclear morphology changes associated with apoptosis and necrosis were evaluated by fluorescence microscopy after Hoechst and propidium iodide (PI) staining as previously described.
IC50 values of compounds against cellular viability were determined by using nonlinear regression fitting curves with GraphPad Prism 8 or CalcuSyn software The t test used for statistical analyses was performed with GraphPad Prism 8. All the tests were one-tailed, and a p value < 0.05 was considered statistically significant.

[2] = tested on: E-cadherin protein in PC-3 cells; assay: Western blot of E-cadherin in PC-3; assay type: cell-based, human; details: 1 μM, 24 h
From the text: (§1) Cells were lysed in Laemmli buffer; subsequently, the proteins were resolved by sodium dodecyl sulfate-polyacrylamide gel electrophoresis and transferred to a 0.45-μm nitrocellulose membrane (Bio-Rad Laboratories, Hercules, CA). The following primary antibodies were used for immunoblotting: α-E-cadherin (BD Transduction Laboratories, Franklin Lakes, NJ), α-MMP2 (Abcam), α-DNMT3a (Santa Cruz Biotechnologies, Dallas, TX), and α-GAPDH (Millipore Corp., Bedford, MA), used as a loading control. The immune complexes were detected with horseradish peroxidase-conjugated species-specific secondary antiserum (Bio-Rad Laboratories, Milan, Italy) then by enhanced chemiluminescence reaction (Bio-Rad Laboratories, Milan, Italy). Densitometric analysis of protein expression was performed by using the Fiji ImageJ image processing package.
Fig. 8 Effects of MC3353 on E-cadherin and MMP2 protein expression levels in PC-3 cancer cells. Cells were treated with vehicle (DMSO) used as control (CTR) or MC3353 for 24 h. a E-cadherin and MMP2 protein detection by western blot. GAPDH was used as a loading control. Blots are representative of three independent experiments. b Densitometric analysis of E-cadherin and MMP2 protein expression. Significance is represented as *p < 0.05 related to the control groups. Data were obtained from three independent experiments and expressed as mean ± SEM

[3] = tested on: DNMT3A protein level in HCT116 cells; assay: Western blot of DNMT3A protein in HCT116; assay type: cell-based, human; details: 24 h; MC3353 effect detectable at 0.1 μM
From the text: as §1
GAPDH was used as a loading control. Blots are representative of two independent experiments

[4] = tested on: HCT116 cells; assay: MTT proliferation assay HCT116; assay type: cell-based, human; details: 24 and 48 h; MC3353 from 0.5 μM after 48 h; DAC at 10 μM
Protocol: The MTT [3-(4,5-dimethylthiazol-2-yl)-2,5-diphenyltetrazolium bromide] (Sigma-Aldrich, Milan, Italy) assay was used to determine the proliferation of HCT116 clone and DKO HCT116 cells after treatment with MC3353, 5-AZA, and DAC. 5 × 10^4 cells/well for both cell lines were plated in 24-well plate and treated, in duplicate, with compounds at several concentrations for 24 and 48 h of induction. After treatments, MTT solution was added for 3 h at 0.5 mg/mL, the purple formazan crystals were dissolved in DMSO (Sigma-Aldrich, Milan, Italy), and the absorbance was read at a wavelength of 570 nm with reader TECAN M-200.

[5] = tested on: methylated UCHL1 promoter EGFP reporter in HCT116 cells; assay: UCHL1 promoter demethylation assay (EGFP expression, FACS) in HCT116; assay type: cell-based, human; details: 5 days, HCT116 with methylated pUCHL1 vector
Protocol: Human colon cancer HCT116 (ATCC, VA, USA) cells were propagated in McCoy’s 5A medium (Euroclone, Milan, Italy) with 10% fetal bovine serum (FBS; Euroclone), 2 mM L-glutamine (Euroclone), and antibiotics (100 U/mL penicillin, 100 µg/mL streptomycin) (Euroclone). For the treatments with MC3353, 5-AZA, and DAC as positive controls, 2 × 10^4 cells were seeded in 6-well plates in triplicate. Cells were treated every 2 days, and the medium was changed. On day 5, cells were observed under a fluorescent microscope. The nuclei were counterstained with DAPI (10 μg/mL, Invitrogen, Tournai, Belgium).
Fluorescence of EGFP and DAPI in living cells was analyzed by Cytation™ 5 Cell Imaging Multi-Mode Reader (BioTeK, Milan, Italy).
Before the transfection, the pUMLIEP vector was linearized by with ClaI restriction enzyme (New England Biolabs, Milan, Italy) and then it was methylated by SssI-methylase (New England Biolabs, Milan, Italy) for 60 min. The methylated vector was transfected into HCT116 cells using Lipofectamine™2000 (Invitrogen, Monza, Italy) and Opti-MEM® (Gibco, Monza, Italy), and stably introduced clones were selected with puromycin (1.0 μg/mL, Sigma-Aldrich, Milan, Italy). The detailed protocol for the generation of cells highly responsive to DNA demethylating agents is described in [27].
Next, the demethylating activity of MC3353 was evaluated in cells transfected with luciferase and EGFP reporter genes driven by the UCHL1 promoter. The UCHL1 promoter is silenced by methylation in human colon cancer and can be demethylated by specific treatments, inducing expression of Metridia luciferase and EGFP reporter genes. In particular, the pUCHL1 vector, after methylation, was transfected into HCT116 colon cancer cells, and the stable clone was obtained by puromycin selection. Afterwards, cells were treated with 5-AZA (5 μM), with DAC (5 μM), or with MC3353 (0.1 μM) for 5 days. Such a low MC3353 dose was used because of its cytotoxicity at higher concentrations in long treatments.

[6] = biological target: T1, Src kinase (h) (Homo sapiens, UniProt P12931); assay: Kinase panel (Cerep); assay type: biochemical; details: read-out: % inhibition at 10 µM by MC3353, Src kinase (h), ATP 5 μM
T1 construct: purchased Eurofins Cerep
Protocol: (§2) The test compound, reference compound or water (control) were mixed with the enzyme (for the exact amount see table below) in the appropriate buffer. Thereafter, the reaction was initiated by adding the required amount of the appropriate substrate and of ATP, and the mixture is incubated at room temperature (variable reaction time, see table below). For control basal measurements, the enzyme was omitted from the reaction mixture. Following incubation, the reaction was stopped by adding 13 mM EDTA. After 5 min, the proper antibody labelled with europium chelate was added. After 60 more min, the fluorescence transfer was measured at λex=337 nm, λem=620 nm and λem=665 nm using a microplate reader (Envision, Perkin Elmer). The enzyme activity was determined by dividing the signal measured at 665 nm by that measured at 620 nm (ratio). The results are expressed as a percent inhibition of the control enzyme activity.

[7] = biological target: T2, p38alpha kinase (h) (Homo sapiens, UniProt Q16539); assay: Kinase panel (Cerep); assay type: biochemical; details: read-out: % inhibition at 10 µM by MC3353, p38alpha kinase (h), ATP 100 μM
T2 construct: purchased Eurofins Cerep
Protocol: as §2

T1 sequence (P12931 whole entry): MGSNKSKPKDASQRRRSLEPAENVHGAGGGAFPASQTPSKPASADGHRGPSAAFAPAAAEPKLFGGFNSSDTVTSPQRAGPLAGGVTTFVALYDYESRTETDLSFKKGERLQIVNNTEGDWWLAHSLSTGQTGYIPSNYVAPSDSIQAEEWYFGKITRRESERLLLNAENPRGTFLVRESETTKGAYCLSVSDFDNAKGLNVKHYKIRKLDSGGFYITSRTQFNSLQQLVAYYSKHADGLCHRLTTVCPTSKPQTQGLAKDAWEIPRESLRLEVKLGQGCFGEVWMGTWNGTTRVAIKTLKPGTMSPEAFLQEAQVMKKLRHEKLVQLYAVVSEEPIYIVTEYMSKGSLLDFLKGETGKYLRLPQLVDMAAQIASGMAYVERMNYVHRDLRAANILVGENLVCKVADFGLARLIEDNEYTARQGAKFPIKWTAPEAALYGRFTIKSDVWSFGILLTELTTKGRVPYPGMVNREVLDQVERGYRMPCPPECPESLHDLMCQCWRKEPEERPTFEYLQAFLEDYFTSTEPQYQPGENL
T2 sequence (Q16539 whole entry): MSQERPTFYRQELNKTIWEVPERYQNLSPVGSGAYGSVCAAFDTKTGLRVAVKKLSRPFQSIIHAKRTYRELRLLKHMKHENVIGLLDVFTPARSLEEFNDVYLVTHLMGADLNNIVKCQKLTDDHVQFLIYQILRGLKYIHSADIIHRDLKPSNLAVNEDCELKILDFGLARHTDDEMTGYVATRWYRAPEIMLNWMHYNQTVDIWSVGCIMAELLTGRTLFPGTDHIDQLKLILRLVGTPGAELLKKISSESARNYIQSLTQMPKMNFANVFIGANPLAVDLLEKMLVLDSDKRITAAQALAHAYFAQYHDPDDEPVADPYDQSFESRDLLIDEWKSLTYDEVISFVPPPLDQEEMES

Structure (SMILES)	IC50 [1] [nM]	E-cadherin protein expression (western blot, densitometry), PC-3 [2]	DNMT3A protein expression level (western blot), HCT116 [3]	effect on HCT116 proliferation (MTT) [4]	EGFP gene expression induction (FACS) ([5]; 0.1 μM) [%]	inhibition at 10 µM [6] [%]	inhibition at 10 µM [7] [%]	EGFP gene expression induction (FACS) ([5]; 5 μM) [%]
O=C(Nc1ccc(NC(=O)c2ccc(Nc3ccnc4ccccc34)cc2)cc1)OCc1ccccc1 [MC3353, Benzyl (4-(4-(quinolin-4-ylamino)benzamido)phenyl)carbamate]	300 to 900	significantly induced E-cadherin expression	DNMT3A protein downregulation was observed	markedly decreased HCT116 proliferation	81.4	57	-58	–
Nc1ncn([C@H]2C[C@H](O)[C@@H](CO)O2)c(=O)n1 [DAC, 5-aza-2′-deoxycytidine, reference compound]	–	–	–	modest proliferation inhibition	–	–	–	49.7
